In patent publication US8853147B2, “Use of peptide epoxyketones for metastasis suppression” (Onyx Therapeutics, Inc., priority 2009, dated 2014):
Entries after “also recorded” stand apart in the source; their conditions may differ.

System: 4T1 mammary carcinoma cells
Test: 4T1 mammary carcinoma metastasis model in BALB/c mice (mammary fat pad challenge, lung metastases)
Assay type: in vivo
Settings: female BALB/c mice
Procedure: 6-8 week old female BALB/c mice were challenged in the mammary fat pad with 4T1 mammary carcinoma cells (1×10^5/mouse). Treatment was initiated on Day 3 post tumor challenge. Compound 1 was administered orally at 30 or 40 mg/kg on a weekly schedule of QDX2 or QDX5.

COC[C@H](NC(=O)c1cnc(C)s1)C(=O)N[C@@H](COC)C(=O)N[C@@H](Cc1ccccc1)C(=O)[C@@]1(C)CO1 [Compound 1]
reduction of the number of metastatic tumors in the lung (4T1 cells 1×10^5/mouse in mammary fat pad, oral 30 or 40 mg/kg, weekly schedule QDX2 or QDX5, treatment from Day 3 post tumor challenge): about 50%
repression of metastasis (number of metastatic tumors), result in words (4T1 model, both dose schedules (QDX2, QDX5) and dose levels (30, 40 mg/kg oral), FIG. 1): reduction in the number of metastatic breast tumors; also recorded: effective in repressing metastasis
